This passage reports IC50 results from patent publication US10544143B2, “4-azaindole compounds” (BRISTOL-MYERS SQUIBB COMPANY, priority 2017, dated 2020).

One experiment deals with human TLR7 (Homo sapiens (Human), UniProt Q9NYK1). Briefly: TLR7 inhibition reporter assay (HEK-Blue SEAP). The experiment is classed as cell-based.
In another experiment the target is human TLR9 (Homo sapiens (Human), UniProt Q9NR96). Briefly: TLR9 inhibition reporter assay (HEK-Blue SEAP).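 Also: SEAP driven by an IFN-β minimal promoter with NF-κB and AP-1 sites, read after 22 h, compounds dosed 0.05 nM–50 µM, inhibition scaled between agonist plus DMSO and reference-inhibitor wells.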 To be noted: read-out: TLR9 IC50.
Sequence of human TLR9 (Q9NR96 26-1032): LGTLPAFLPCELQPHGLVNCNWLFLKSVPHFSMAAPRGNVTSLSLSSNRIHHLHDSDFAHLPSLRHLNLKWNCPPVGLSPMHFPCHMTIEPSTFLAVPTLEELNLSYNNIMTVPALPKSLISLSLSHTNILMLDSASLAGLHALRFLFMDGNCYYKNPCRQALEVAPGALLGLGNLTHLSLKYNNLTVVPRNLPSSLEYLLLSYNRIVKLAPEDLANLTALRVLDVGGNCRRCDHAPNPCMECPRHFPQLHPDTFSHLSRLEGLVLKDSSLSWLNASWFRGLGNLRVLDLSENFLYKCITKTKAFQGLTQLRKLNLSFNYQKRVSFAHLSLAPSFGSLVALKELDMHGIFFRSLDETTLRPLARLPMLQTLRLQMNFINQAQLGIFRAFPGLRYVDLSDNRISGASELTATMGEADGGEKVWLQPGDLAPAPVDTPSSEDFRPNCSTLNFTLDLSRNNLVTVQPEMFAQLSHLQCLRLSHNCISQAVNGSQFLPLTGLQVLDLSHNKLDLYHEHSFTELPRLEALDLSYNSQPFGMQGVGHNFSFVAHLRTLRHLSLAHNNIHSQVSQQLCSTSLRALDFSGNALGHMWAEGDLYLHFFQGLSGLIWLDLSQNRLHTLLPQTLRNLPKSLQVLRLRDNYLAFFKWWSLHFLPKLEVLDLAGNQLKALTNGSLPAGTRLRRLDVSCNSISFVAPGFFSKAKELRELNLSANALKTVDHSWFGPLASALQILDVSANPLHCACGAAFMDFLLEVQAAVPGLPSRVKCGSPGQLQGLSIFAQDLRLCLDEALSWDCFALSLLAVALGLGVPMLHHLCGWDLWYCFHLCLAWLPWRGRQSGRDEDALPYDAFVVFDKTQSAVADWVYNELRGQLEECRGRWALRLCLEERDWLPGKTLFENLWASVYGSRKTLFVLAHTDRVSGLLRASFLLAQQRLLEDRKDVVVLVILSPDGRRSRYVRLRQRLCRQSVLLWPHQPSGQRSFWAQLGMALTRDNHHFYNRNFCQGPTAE
Another experiment deals with human TLR8 (Homo sapiens (Human), UniProt Q9NR97). The experiment in a line: TLR8 inhibition reporter assay (HEK-Blue SEAP).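 Also: SEAP driven by IFN-β minimal promoter carrying NF-κB and AP-1 sites, compounds dosed 0.05 nM to 50 µM for 22 h, inhibition scaled between agonist-plus-DMSO and reference-inhibitor wells.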 To be noted: read-out: TLR8 IC50. (In general: Reporter assays use an easily measured gene product as a stand-in for the process of interest.)
Sequence of human TLR8 (Q9NR97 27-1041): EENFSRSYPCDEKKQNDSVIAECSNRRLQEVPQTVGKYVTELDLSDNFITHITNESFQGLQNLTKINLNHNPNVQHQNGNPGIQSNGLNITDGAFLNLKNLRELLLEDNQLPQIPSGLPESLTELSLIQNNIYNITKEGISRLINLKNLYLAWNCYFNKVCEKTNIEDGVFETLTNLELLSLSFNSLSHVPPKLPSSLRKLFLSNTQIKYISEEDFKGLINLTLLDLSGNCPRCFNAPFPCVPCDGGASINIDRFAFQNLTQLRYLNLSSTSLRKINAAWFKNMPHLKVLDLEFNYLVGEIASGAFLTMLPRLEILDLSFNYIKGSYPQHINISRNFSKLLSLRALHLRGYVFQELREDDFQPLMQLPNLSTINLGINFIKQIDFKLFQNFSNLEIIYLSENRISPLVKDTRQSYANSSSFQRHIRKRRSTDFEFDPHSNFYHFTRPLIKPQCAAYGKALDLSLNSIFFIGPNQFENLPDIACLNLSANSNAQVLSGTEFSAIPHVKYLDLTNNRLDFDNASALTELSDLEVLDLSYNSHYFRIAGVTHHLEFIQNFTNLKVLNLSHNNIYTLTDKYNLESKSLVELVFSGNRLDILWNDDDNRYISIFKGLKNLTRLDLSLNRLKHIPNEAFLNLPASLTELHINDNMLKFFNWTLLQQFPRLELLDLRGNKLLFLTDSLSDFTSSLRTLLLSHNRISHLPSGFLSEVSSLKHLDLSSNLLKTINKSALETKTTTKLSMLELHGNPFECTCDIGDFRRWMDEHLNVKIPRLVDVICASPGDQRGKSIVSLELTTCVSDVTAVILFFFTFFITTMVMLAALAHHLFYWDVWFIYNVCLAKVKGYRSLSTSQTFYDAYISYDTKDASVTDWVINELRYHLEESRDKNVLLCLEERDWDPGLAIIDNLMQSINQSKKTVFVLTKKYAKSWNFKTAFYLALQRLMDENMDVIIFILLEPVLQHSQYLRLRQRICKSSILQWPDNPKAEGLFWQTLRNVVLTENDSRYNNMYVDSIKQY
[1] abbreviates: HEK-Blue cells overexpressing human TLR7, gardiquimod 7.5 μM stimulation, SEAP reporter.
[2] abbreviates: HEK-Blue cells overexpressing human TLR9, ODN2006 5 nM stimulation, SEAP reporter.
Setting [3] is: HEK-Blue cells overexpressing human TLR8, R848 15.9 μM stimulation, SEAP reporter.
The mark [4] stands for this setting: HEK-Blue cells overexpressing human TLR7, SEAP reporter, gardiquimod 7.5 μM.
[5] abbreviates: HEK-Blue cells overexpressing human TLR9, SEAP reporter, ODN2006 5 nM.
Setting [6] is: HEK-Blue cells overexpressing human TLR8, SEAP reporter, R848 15.9 μM.
Where [7] appears, read: HEK-Blue human TLR7 cells, gardiquimod 7.5 μM.
The mark [8] stands for this setting: HEK-Blue human TLR9 cells, ODN2006 5 nM.
[9] abbreviates: HEK-Blue human TLR8 cells, R848 15.9 μM.

Molecules are shown by their SMILES. Where two headings read alike, the source gives them in different places.

Sequence of human TLR7 (Q9NYK1 27-1049): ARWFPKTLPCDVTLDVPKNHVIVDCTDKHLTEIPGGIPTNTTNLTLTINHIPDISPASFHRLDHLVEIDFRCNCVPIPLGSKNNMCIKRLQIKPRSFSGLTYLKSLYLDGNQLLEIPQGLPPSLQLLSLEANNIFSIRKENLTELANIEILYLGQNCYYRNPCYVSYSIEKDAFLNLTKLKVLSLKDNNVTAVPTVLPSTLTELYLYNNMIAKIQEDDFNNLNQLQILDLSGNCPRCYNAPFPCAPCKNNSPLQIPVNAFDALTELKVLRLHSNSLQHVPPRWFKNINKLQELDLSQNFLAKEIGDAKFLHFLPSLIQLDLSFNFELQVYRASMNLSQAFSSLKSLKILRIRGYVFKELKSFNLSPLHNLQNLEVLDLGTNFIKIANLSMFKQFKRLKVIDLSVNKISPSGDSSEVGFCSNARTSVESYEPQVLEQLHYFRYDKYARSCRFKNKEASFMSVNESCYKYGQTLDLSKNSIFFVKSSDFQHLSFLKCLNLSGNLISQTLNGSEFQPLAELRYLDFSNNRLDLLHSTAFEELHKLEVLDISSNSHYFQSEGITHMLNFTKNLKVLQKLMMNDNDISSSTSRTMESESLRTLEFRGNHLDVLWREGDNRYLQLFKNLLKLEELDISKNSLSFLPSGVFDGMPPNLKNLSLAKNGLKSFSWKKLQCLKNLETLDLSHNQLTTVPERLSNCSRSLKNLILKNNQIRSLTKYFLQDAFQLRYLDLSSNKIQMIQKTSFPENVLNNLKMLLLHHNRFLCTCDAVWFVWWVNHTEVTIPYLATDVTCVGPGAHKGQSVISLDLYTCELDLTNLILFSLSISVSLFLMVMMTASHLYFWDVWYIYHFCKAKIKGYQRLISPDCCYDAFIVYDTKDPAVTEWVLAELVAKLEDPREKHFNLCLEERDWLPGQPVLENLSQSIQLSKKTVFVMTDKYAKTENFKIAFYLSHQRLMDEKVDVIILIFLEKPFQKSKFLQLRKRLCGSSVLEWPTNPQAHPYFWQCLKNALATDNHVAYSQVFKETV

The IC50 is the concentration that gives 50% inhibition. `CCn1cc(-c2[nH]c3ccc(C4CCC(NCC(=O)N(C)C)CC4)nc3c2C(C)C)c2cccnc21` (stereo not drawn) [Example 291]: the figures for the IC50 on human TLR7 (setting [1]), on human TLR9 (setting [2]) and at human TLR8 (setting [3]) were 2.6 nM, 735 nM and 11 nM, respectively.

For `COCc1cc(-c2[nH]c3ccc(C4CCC(NC5COC5)CC4)nc3c2C(C)C)cn2ncnc12` (stereo not drawn) [Example 229], the IC50 at human TLR7 (setting [1]) stood at 19 nM; on human TLR9 (setting [2]), 1710 nM; at human TLR8 (setting [3]), 18 nM.

On to `Cc1cc(-c2[nH]c3ccc(OC4CCN(C)CC4)nc3c2C(C)C)cn2ncnc12` [Example 594, 6-(3-isopropyl-5-((1-methylpiperidin-4-yl)oxy)-1H-pyrrolo[3,2-b]pyridin-2-yl)-8-methyl-[1,2,4]triazolo[1,5-a]pyridine], for which the concentration for half-maximal inhibition (IC50) against human TLR7 (setting [4]) amounted to 3.9 nM; on human TLR9 (setting [5]), 7910 nM; at human TLR8 (setting [6]), 16 nM.

`CNC(=O)CN(C)C1CCC(c2ccc3[nH]c(-c4cn5ncnc5c(C)c4C)c(C(C)C)c3n2)CC1` (stereo not drawn) [Example 420]: the IC50 at human TLR7 (setting [4]) worked out at 1.2 nM; on human TLR9 (setting [5]), 3530 nM; on human TLR8 (setting [6]) it was 2.8 nM.

As for `Cc1c(-c2[nH]c3ccc(N4C[C@@H](C)N(C(=O)CCN5CC6(C5)CS(=O)(=O)C6)C[C@@H]4C)nc3c2C(C)C)cn2ncnc2c1C` [Example 959], the IC50 is 1.4 nM against human TLR7 (setting [7]), 7680 nM at human TLR9 (setting [8]) and 0.29 nM on human TLR8 (setting [9]).

`CCCN1CC2(C1)CN(c1ccc3[nH]c(-c4cc(OC)c5ncnn5c4)c(C(C)C)c3n1)C2` [Example 1019]: the IC50 on human TLR7 (setting [7]) was 1.7 nM; on human TLR9 (setting [8]) it was 3280 nM; on human TLR8 (setting [9]), 16 nM.

In the case of `COc1cc(-c2[nH]c3ccc(N4CCN(C5CCS(=O)(=O)CC5)CC4)nc3c2C(C)C)cn2ncnc12` [Example 133], the IC50 at human TLR7 (setting [1]) was 4.3 nM; on human TLR9 (setting [2]), > 50000 nM; on human TLR8 (setting [3]), 1.4 nM.

With `Cc1cc(-c2[nH]c3ccc(C4CN(C5COC5)CCO4)nc3c2C(C)C)cn(C)c1=O` (stereo not drawn) [Example 667], the half-maximal inhibitory concentration (IC50) against human TLR7 (setting [4]) is 145 nM; at human TLR9 (setting [5]), > 50000 nM; at human TLR8 (setting [6]), 711 nM.

With `Cc1c(-c2[nH]c3ccc(C4CCC(N(C)CC(=O)N(C)C)CC4)nc3c2C(C)C)cn2ncnc2c1C` (stereo not drawn) [Example 408], the values for the IC50 against human TLR7 (setting [4]), on human TLR9 (setting [5]) and on human TLR8 (setting [6]) were 18 nM, 6440 nM and 43 nM, respectively.

In the case of `CNC1CCC(c2ccc3[nH]c(-c4cn(C)c5ncncc45)c(C(C)C)c3n2)CC1` (stereo not drawn) [Example 296], the IC50 came out at 0.59 nM against human TLR7 (setting [1]), 600 nM on human TLR9 (setting [2]) and 6.8 nM on human TLR8 (setting [3]).

Regarding `CC(C)c1c(-c2cn(C)c3ncccc23)[nH]c2ccc(N3CC(N)C3)nc12` [Example 32], the IC50 against human TLR7 (setting [1]) is 7.3 nM; at human TLR9 (setting [2]), 1880 nM; at human TLR8 (setting [3]) it was 6.9 nM.

Turning to `COc1cc(-c2[nH]c3cc(C)c(C4CCC(N5CC(F)(F)C5)CC4)nc3c2C(C)C)cn2ncnc12` (stereo not drawn) [Example 338], the IC50 against human TLR7 (setting [1]) is 81 nM; on human TLR9 (setting [2]), > 50000 nM; at human TLR8 (setting [3]), 1170 nM.

Regarding `CNC1CN(c2ccc3[nH]c(-c4cc(OC)c5ncnn5c4)c(C(C)C)c3n2)C1` [Example 31], the IC50 on human TLR7 (setting [1]) worked out at 13 nM; at human TLR9 (setting [2]) it was 6060 nM; at human TLR8 (setting [3]), 19 nM.

As for `COc1cc(-c2[nH]c3ccc(C4CN(C(C)C)C4)nc3c2C(C)C)cn2ncnc12` [Example 655], the IC50 is 1.4 nM against human TLR7 (setting [4]), 2070 nM at human TLR9 (setting [5]) and 11 nM at human TLR8 (setting [6]).

Consider `Cc1c(-c2[nH]c3ccc(C4CCC(NC(C)C)CC4)nc3c2C(C)C)cn2ncnc2c1C` (stereo not drawn) [Example 358], for which the IC50 was found to be 0.95 nM on human TLR7 (setting [1]), 1320 nM on human TLR9 (setting [2]) and 2.8 nM at human TLR8 (setting [3]).

Regarding `CNC(=O)CN1CCC(c2ccc3[nH]c(-c4cn(C)c(=O)c(C)c4C)c(C(C)C)c3n2)CC1` [Example 544], the IC50 at human TLR7 (setting [4]) came to 11 nM; on human TLR9 (setting [5]), 5660 nM; at human TLR8 (setting [6]), 6.4 nM.

As to `Cc1c(-c2[nH]c3ccc(N4CCN(C(=O)CN5CCCC5)C[C@@H]4C)nc3c2C(C)C)cn2ncnc2c1C` [Example 825], the results for the half-inhibitory concentration (IC50) against human TLR7 (setting [7]), at human TLR9 (setting [8]) and on human TLR8 (setting [9]) were 0.53 nM, 6280 nM and 1.1 nM, respectively.
